Bridge positions count the residues as written; N and C are the ends. Square brackets hold non-standard residues; d marks the D form. Ends that are not written are not given here. Peptide text beside a SMILES is read from it. NMeF = CN[C@@H](Cc1ccccc1)C(=O)O; dOrn = NCCC[C@@H](N)C(=O)O

For test [1], the target named is T1, Mu-opioid receptor (Homo sapiens, UniProt P35372).
T1 construct: expressed in transfected cells; host or cells: HEK293
Briefly: cAMP functional experiment, Mu-opioid receptor (forskolin-induced cAMP accumulation). It is filed as cell-based. On the procedure: (§1) The agonistic activity of the cyclopeptide molecule of the present invention against Mu-opioid receptor, Delta-opioid receptor, Kappa-opioid receptor, NPFF1 receptor and NPFF2 receptor was evaluated by detecting the regulation of the cyclopeptide molecule of the present invention on the intracellular accumulation of cyclic adenosine monophosphate (cAMP) induced by Forskolin in HEK293 cells stably expressing these five receptors. The experimental method was: the cells were seeded in 24 well plates with 120000 cells per well, and were cultured for more than 20 hours. At the beginning of the experiment, the culture medium in the culture dish was suck out, and then 500 μL of preheated serum-free medium containing 1 mM of IBMX was added, the mixture was incubated at 37° C. for 10 minutes. Then each 10 μL of the drug to be tested and 10 μM of forskolin (final concentration) were added to each well. The mixture was incubated at 37° C. for 30 minutes. After incubation, all the liquid was suck out from the culture dish, 500 μL of 0.2 N hydrochloric acid was added to each well, the mixture was incubated at room temperature for 30 minutes to promote cell lysis. After lysis was complete, NaOH was added to neutralize the hydrochloric acid solution used for lysis. Then all the liquid was suck out from the culture dish into centrifuge tubes, the liquid was centrifuged at 12000 rpm for 2 minutes. 50 μL was taken to a clean centrifuge tube, 100 μL of 60 μg/μL PKA was added, and 100 μL of TE cAMP buffer was added to the blank control group (B). Another 50 μL of 0.5 μ Ci[^3H]cAMP was added to each of the above centrifuge tubes, the mixture was quickly mixed and incubated at 4° C. for more than 2 hours. After incubation, another 100 μL of activated carbon suspension was added to each tube, the mixture was vortex agitated evenly, placed in an ice bath for 1 minute, centrifuged at 5000 rpm for 4 minutes. 200 μL of supernatant after centrifugation in each tube was suck out to a 24 well plate, with an additional 700 μL of scintillator liquid added per well, then the 24 well plate was sealed with adhesive film, placed for 3 hours, then placed on the scintillation instrument for measurement.
(§2) The inhibitory effect of cAMP was represented by the percentage (% control) of drug inhibition of intracellular cAMP accumulation induced by Forskolin, wherein % control=(cAMP content when treated with Forskolin−cAMP content when Forskolin co-treated with the test drug)/(cAMP content when treated with Forskolin−cAMP content when treated with solvent). The related % control data was represented by mean±S.E.M. The dose-effect relationship of the drug was statistically analyzed using a nonlinear regression model, and the IC50 values of the multi-target cyclopeptide molecule on inhibition of Forskolin induced intracellular cAMP accumulation were calculated using the statistical software GraphPad Prism version 5.0.
(Cyclic AMP is a second messenger, typically raised through Gs and lowered through Gi signalling.)

Test [2] has as its target T2, Delta-opioid receptor (Homo sapiens, UniProt P41143).
T2 construct: expressed in transfected cells; host or cells: HEK293
Briefly: cAMP functional experiment, Delta-opioid receptor (forskolin-induced cAMP accumulation). The class given is cell-based. How it is done:
as §1, §2

The target of test [3] is T3, NPFF1 receptor (Homo sapiens, UniProt Q9GZQ6).
T3 construct: expressed in transfected cells; host or cells: HEK293
Briefly: cAMP functional experiment, NPFF1 receptor (forskolin-induced cAMP accumulation). It is filed as cell-based. On the procedure:
as §1, §2

Test [4] deals with T4, NPFF2 receptor (Homo sapiens, UniProt Q9Y5X5).
T4 construct: expressed in transfected cells; host or cells: HEK293
Briefly: cAMP functional experiment, NPFF2 receptor (forskolin-induced cAMP accumulation). It is filed as cell-based. On the procedure:
as §1, §2

Test [5] concerns Kunming male mice. Kind of test: Photothermal tail flick experiment, subcutaneous injection. The class given is in vivo. To be noted: for ED50 value (95% confidence interval), analgesic activity: photothermal tail flick. How it is done:
(§3) Two administration methods were used: peripheral subcutaneous administration and oral administration. Subsequently, the analgesic activity of the drug was studied using an acute pain model of photothermal tail flick in mice.
Subcutaneous administration on the back was chosen for subcutaneous administration (s.c.). A sterile 1 mL syringe was used and the drug with the volume of 0.1 mL/10 g was injected for administration. The back skin was grasped with the right hand, the needle was tilted in, and the drug was injected subcutaneously into the mouse's back. After the needle was inserted, shook it left and right, and observe to confirm that the needle had indeed entered the subcutaneous area to prevent the needle from puncturing the skin and leaking the drug.
(§4) The photothermal tail flick experiment is based on the experimental method summarized by D'Amour and Smith to optimize the experimental parameters. The experiment selected Kunming male mice with body weigh 21±2 g, and ambient temperature controlled at 22±2° C. The experimental mice were allowed to drink water freely and were moved from the breeding room to the experimental area for adaptation for 30 minutes before starting the experiment. Then the mice were grab with the right hand and the tail hang freely. Then the mice's tail were placed on a radiation light source, 2-3 mm away from the mice tail. The intensity of radiation heat was adjusted to the tail flick time of mice being 3-5 s, which is the basic pain threshold of photothermal tail flick. The irradiation time of the mice tail should not exceed 10 s to prevent scalding of the mice tail, which was the maximum latency for photothermal tail flick. After administration, time points of 10, 20, 30, 45, 60, 90, 120, 180, 240, 300, 360, and 420 minutes were selected to measure the tail flick latency of mice after administration.
(§5) The analgesic effect of drugs was generally evaluated using the maximum analgesic effect MPE (%), MPE (%)=100×[(pain threshold after administration−basic pain threshold)/(10 seconds−basic pain threshold)]. 50% effective dose (ED50) refers to the corresponding drug dose that causes a 50% effect. ED50 and 95% confidence interval were calculated using MPE (%) and the drug concentration that achieves the maximum analgesic effect MPE (%) by the statistical software GraphPad Prism 5.0. The difference in analgesic effects was statistically analyzed using one-way ANOVA (Dunnett test), *P<0.05, **P<0.01, and ***P<0.001 indicated significance of the difference between the group with only drug injected and the saline group.

The subject of test [6] is Kunming male mice. Briefly: Photothermal tail flick experiment, oral administration. The class given is in vivo. As to conditions: tail flick; for Maximum analgesic time: oral administration at the maximum analgesic dose. On the procedure: as §3
1 mL sterile syringe was used for oral administration (p.o.), the pinhead was replaced with a mouse gastric lavage needle, and […] of the drug was orally administered. The skin on the neck and back of the mouse was grasped with the left hand with the abdomen facing upwards. Noted that the mouse's entire body was fixed to vertical, which was beneficial for oral gavage. A gastric lavage needle (No. 12 needle and 1 mL syringe) was held in the right hand and was inserted to the esophagus along the upper jaw which is pressed the tongue tightly from the corner of the mouse's mouth. Gastric lavage fluid can be injected when the needle inserted 2.5 cm. The inserting length of the needle should be determined through practice in advance, as there is a sense of falling into a hole after the needle is inserted. If the injection position was appropriate, it should be very smooth. […] This can cause immediate death of the mouse after gavage.
as §4, §5

Test [7] concerns the target T5, Kappa-opioid receptor (Homo sapiens, UniProt P41145).
T5 construct: expressed in transfected cells; host or cells: HEK293
Kind of test: cAMP functional experiment, Kappa-opioid receptor (forskolin-induced cAMP accumulation). The class given is cell-based. How it is done:
as §1, §2

T3 sequence (Q9GZQ6 whole entry): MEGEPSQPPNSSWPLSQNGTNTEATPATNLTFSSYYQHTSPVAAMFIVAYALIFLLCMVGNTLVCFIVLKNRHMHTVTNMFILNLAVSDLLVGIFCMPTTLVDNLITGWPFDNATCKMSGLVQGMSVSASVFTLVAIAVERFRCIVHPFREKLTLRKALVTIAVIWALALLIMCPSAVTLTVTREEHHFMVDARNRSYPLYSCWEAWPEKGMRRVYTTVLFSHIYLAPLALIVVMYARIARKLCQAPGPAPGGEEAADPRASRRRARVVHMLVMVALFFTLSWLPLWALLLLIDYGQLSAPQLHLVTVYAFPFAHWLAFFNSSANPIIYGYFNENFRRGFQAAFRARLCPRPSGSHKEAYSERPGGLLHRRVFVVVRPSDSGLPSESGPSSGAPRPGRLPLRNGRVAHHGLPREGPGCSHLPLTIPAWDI
T2 sequence (P41143 whole entry): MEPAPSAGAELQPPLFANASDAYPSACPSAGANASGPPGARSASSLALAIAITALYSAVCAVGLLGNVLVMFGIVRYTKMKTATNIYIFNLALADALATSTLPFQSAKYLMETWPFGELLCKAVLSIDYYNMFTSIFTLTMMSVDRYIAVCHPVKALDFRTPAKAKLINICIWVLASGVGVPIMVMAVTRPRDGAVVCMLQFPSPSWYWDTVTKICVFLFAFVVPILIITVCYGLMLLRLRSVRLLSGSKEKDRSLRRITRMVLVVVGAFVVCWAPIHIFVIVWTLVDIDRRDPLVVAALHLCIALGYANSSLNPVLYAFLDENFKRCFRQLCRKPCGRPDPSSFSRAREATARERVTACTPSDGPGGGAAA
T4 sequence (Q9Y5X5 whole entry): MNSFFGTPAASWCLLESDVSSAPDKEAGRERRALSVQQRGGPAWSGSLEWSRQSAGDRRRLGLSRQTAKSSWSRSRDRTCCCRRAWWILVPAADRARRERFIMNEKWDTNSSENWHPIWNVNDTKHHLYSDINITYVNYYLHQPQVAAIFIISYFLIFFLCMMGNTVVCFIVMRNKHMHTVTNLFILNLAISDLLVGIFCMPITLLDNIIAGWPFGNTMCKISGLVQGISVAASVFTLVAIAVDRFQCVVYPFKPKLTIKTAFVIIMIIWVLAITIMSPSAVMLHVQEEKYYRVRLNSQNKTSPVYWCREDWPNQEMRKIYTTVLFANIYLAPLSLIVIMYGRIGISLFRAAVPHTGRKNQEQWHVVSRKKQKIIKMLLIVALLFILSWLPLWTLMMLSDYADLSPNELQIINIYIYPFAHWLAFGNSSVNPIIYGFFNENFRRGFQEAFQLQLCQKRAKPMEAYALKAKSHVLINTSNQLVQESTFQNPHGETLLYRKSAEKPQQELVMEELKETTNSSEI
T1 sequence (P35372 whole entry): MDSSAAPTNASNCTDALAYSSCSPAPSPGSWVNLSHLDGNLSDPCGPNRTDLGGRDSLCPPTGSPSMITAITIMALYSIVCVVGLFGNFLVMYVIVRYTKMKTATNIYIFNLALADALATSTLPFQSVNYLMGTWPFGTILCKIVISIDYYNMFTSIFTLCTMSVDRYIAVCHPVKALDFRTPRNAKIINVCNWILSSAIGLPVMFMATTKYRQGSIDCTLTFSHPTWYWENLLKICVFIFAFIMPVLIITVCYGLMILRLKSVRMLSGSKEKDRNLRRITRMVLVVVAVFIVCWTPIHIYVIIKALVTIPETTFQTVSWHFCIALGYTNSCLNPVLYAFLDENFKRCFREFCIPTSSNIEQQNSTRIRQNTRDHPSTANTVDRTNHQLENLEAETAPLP
T5 sequence (P41145 whole entry): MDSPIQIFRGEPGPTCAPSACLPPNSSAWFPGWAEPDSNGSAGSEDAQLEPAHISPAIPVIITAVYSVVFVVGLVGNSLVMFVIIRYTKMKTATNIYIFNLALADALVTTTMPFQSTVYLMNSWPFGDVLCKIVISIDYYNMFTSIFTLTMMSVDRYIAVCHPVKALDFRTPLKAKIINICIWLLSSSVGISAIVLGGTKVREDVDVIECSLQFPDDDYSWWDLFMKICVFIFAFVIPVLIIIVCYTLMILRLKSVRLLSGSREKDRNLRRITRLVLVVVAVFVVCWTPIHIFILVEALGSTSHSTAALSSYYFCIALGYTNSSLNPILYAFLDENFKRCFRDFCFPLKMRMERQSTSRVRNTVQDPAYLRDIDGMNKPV

`CN1C(=O)CNC(=O)[C@H](NC(=O)[C@@H](N)Cc2ccc(O)cc2)CCCCNC(=O)C[C@H](C(=O)N2CCC[C@H]2C(=O)N[C@@H](CCC(N)=O)C(=O)N[C@@H](CCCNC(=N)N)C(=O)N[C@@H](Cc2ccccc2)C(N)=O)NC(=O)[C@@H]1Cc1ccccc1` [Compound 5, Tyr-c^[2,5][D-Lys-Gly-NMe-Phe-D-Asp]-Pro-Gln-Arg-Phe-NH2] (H-Y[dK]G[NMeF][dD]PQRF-NH2; lactam 2-5): the IC50 in test [1] turned out to be 586 nM; in test [2], 345 nM; in test [3], 528 nM; in test [4], 190 nM. The “ED50 value (95% confidence interval), analgesic activity” value (shortened to “ED50 value (95% confidence interval)”) in test [5] is 23.2 (19.1 to 28.2) μg/kg. In test [6], this compound registered a Maximum analgesic time of 20 min. The compound also yielded an analgesic duration in test [6] (oral administration) of 240 min.
In the case of `CN1C(=O)CNC(=O)[C@H](NC(=O)[C@@H](N)Cc2ccc(O)cc2)CCCCNC(=O)CC[C@@H](C(=O)N2CCC[C@H]2C(=O)N[C@@H](CCC(N)=O)C(=O)N[C@@H](CCCNC(=N)N)C(=O)N[C@@H](Cc2ccccc2)C(N)=O)NC(=O)[C@@H]1Cc1ccccc1` [Compound 2, Tyr-c^[2,5][D-Lys-Gly-NMe-Phe-Glu]-Pro-Gln-Arg-Phe-NH2] (H-Y[dK]G[NMeF]EPQRF-NH2; lactam 2-5), the IC50 in test [1] is 48.8 nM; in test [7] it was 29.5 nM; in test [2] it was 36.4 nM; in test [3], 189 nM; in test [4], 83.1 nM. Besides, the “ED50 value (95% confidence interval)” value in test [5] was 17.9 (15.3 to 20.9) μg/kg. In addition, the Maximum analgesic time in test [6] amounted to 30 min. The analgesic duration in test [6] (oral administration) is given as 240 min.
With `CN1C(=O)CNC(=O)[C@H](NC(=O)[C@@H](N)Cc2ccc(O)cc2)CCCNC(=O)C[C@@H](C(=O)N2CCC[C@H]2C(=O)N[C@@H](CCC(N)=O)C(=O)N[C@@H](CCCNC(=N)N)C(=O)N[C@@H](Cc2ccccc2)C(N)=O)NC(=O)[C@@H]1Cc1ccccc1` [Compound 8, Tyr-c^[2,5][D-Orn-Gly-NMe-Phe-Asp]-Pro-Gln-Arg-Phe-NH2] (H-Y[dOrn]G[NMeF]DPQRF-NH2; lactam 2-5), the IC50 was 168 nM in test [1]; 139 nM in test [7]; 659 nM in test [2]; 439 nM in test [3]; 133 nM in test [4]. Further, in test [5], the “ED50 value (95% confidence interval)” value was 15.0 (13.8 to 16.4) μg/kg. In test [6], the Maximum analgesic time is 30 min. In addition, the analgesic duration in test [6] (oral administration) is reported as 240 min.
With “Tyr-D-Ala-Gly-NMe-Phe-Gly-Pro-Gln-Arg-Phe-NH2 (Y[dA]G[NMeF]GPQRF-NH2) [DN-9, multi-target parent peptide for opioid receptor/neuropeptide FF receptors, chemical template, reference compound]”, the “ED50 value (95% confidence interval)” value in test [5] came to 228 µg/kg. In addition, the “effective analgesic actuation duration” value in test [5] (tail flick) amounted to 90 min. Besides, the Maximum analgesic time in test [6] is 20 min. Besides, in test [6] (oral administration), the analgesic duration amounted to 90 min and the “oral analgesic activity” value is on record as “only produces strong analgesic activity at a high-dose of 40 mg/kg”.
Regarding `CN1C(=O)CNC(=O)[C@H](NC(=O)[C@@H](N)Cc2ccc(O)cc2)CC(=O)NCCCC[C@@H](C(=O)N2CCC[C@H]2C(=O)N[C@@H](CCC(N)=O)C(=O)N[C@@H](CCCNC(=N)N)C(=O)N[C@@H](Cc2ccccc2)C(N)=O)NC(=O)[C@@H]1Cc1ccccc1` [Compound 6, Tyr-c^[2,5][D-Asp-Gly-NMe-Phe-Lys]-Pro-Gln-Arg-Phe-NH2] (H-Y[dD]G[NMeF]KPQRF-NH2; lactam 2-5), the IC50 in test [1] turned out to be 66.3 nM; in test [7] it was 58 nM; in test [2], 74.2 nM; in test [3] it was 222 nM; in test [4], 303 nM. For the same compound, the “ED50 value (95% confidence interval)” value in test [5] is listed as 15.8 (14.6 to 17.1) μg/kg. This compound also had a Maximum analgesic time in test [6] of 30 min. For the same compound, the analgesic duration in test [6] (oral administration) was found to be 240 min.
As for `CN1C(=O)CNC(=O)[C@@H](NC(=O)[C@@H](N)Cc2ccc(O)cc2)CCCCNC(=O)C[C@H](C(=O)N2CCC[C@H]2C(=O)N[C@@H](CCC(N)=O)C(=O)N[C@@H](CCCNC(=N)N)C(=O)N[C@@H](Cc2ccccc2)C(N)=O)NC(=O)[C@@H]1Cc1ccccc1` [Compound 4, Tyr-c^[2,5][Lys-Gly-NMe-Phe-D-Asp]-Pro-Gln-Arg-Phe-NH2] (H-YKG[NMeF][dD]PQRF-NH2; lactam 2-5), the IC50 in test [1] turned out to be 166 nM; in test [2], 923 nM; in test [3] it was 104 nM; in test [4] it was 81.5 nM. For the same compound, the “ED50 value (95% confidence interval)” value in test [5] is recorded as 30.3 (19.4 to 47.1) μg/kg. The same compound gave a Maximum analgesic time in test [6] of 20 min. Also, in test [6] (oral administration), the analgesic duration came out at 240 min.
Turning to `CN1C(=O)CNC(=O)[C@H](NC(=O)[C@@H](N)Cc2ccc(O)cc2)CCCCNC(=O)C[C@@H](C(=O)NCC(=O)N[C@@H](CCC(N)=O)C(=O)N[C@@H](CCCNC(=N)N)C(=O)N[C@@H](Cc2ccccc2)C(N)=O)NC(=O)[C@@H]1Cc1ccccc1` [Compound 12, Tyr-c^[2,5][D-Lys-Gly-NMe-Phe-Asp]-Gly-Gln-Arg-Phe-NH2] (H-Y[dK]G[NMeF]DGQRF-NH2; lactam 2-5), the IC50 in test [1] stood at 82.6 nM; in test [7], 97.4 nM; in test [2] it was 45.2 nM; in test [3] it was 58.6 nM; in test [4] it was 93 nM. Besides, the Maximum analgesic time in test [6] amounted to 20 min. In addition, the analgesic duration in test [6] (oral administration) was found to be 240 min.

The IC50 is the point on the concentration scale where inhibition reaches its midpoint.

The values are drawn from patent US20240166690A1, “MULTI-TARGET CY[…] FOR OPIOID/NEUROPEPTIDE FF RECEPTORS, AND PREPARATION THEREFOR AND APPLICATION THEREOF” (SHANGHAI TIANCI LIFE SCIENCE DEVELOPMENT CO., LTD., priority 2021, published 2024).
